Series [1] is described as follows: mn = molality of the nth substance listed, in mol/kg. Particulars: 313.15 K; 101 kPa; Liquid; fixed-path interferometer; m2 = 0.
The conditions of series [2]: 313.15 K; 101 kPa; Liquid; Sing-around technique in a fixed-path interferometer.

Each structure is given as a SMILES string. Numbers after ± are expanded uncertainties.

As to `O` [water] + O=C(O)CC(O)(CC(=O)O)C(=O)O, the speed of sound in series [1] is recorded as 1528.9 ± 1.1 m/s.
`O` [water]: the speed of sound in series [2] is recorded as 1528.9 ± 1.1 m/s.

The term speed of sound denotes the propagation velocity of pressure waves in the medium.
